From patent US6875451B2, “Compositions and methods for the treatment of primary and metastatic neoplastic diseases using arsenic compounds” (PolaRx Biopharmaceuticals Inc., priority 1997, dated 2005)

Columns and labels:
[1] = tested on: NB4 cells, an APL cell line; conditions: in vitro; cited from earlier work
NCI-H23 = test: SRB growth assay, 2 days exposure, non-small cell lung cancer; format: cell-based
Procedure: (§1) Arsenic trioxide (1 mg/ml, 10 mg/ampoule, manufactured by Taylor Pharmaceuticals, Decatur, Ill.) was tested at five concentrations each at 10-fold dilutions, i.e., 10^−5, 10^−6, 10^−7, 10^−8 and 10^−9 μg/ml.
(§2) The in vitro tests were performed by incubating the test cells in the presence of the indicated concentration of arsenic trioxide under standard culture conditions for a designated period of time, which is followed by a sulforhodamine B (SRB) protein assay to estimate cell viability or growth. The cell lines are organized into subpanels according to the origin of the cell lines, e.g., leukemia, breast cancer, etc. A description of the cell lines and method of testing is described in Monk et al. (1997, Anticancer Drug Des. 12:533-41) and Weinstein et al., (1997, Science 275:343-9), which are incorporated herein in their entirety.
(§3) The measurement of an effect is expressed in Percentage Growth (PG). The measured effect of the compound on a cell line is calculated according to one or the other of the following two expressions: If (Mean ODtest−Mean ODzero)≧0. then PG=100×(Mean ODtest−Mean ODzero)/(Mean ODctrl−Mean ODzero) If (Mean ODtest−Mean ODzero)<0. then PG=100×(Mean ODtest−Mean ODzero)/(Mean ODzero where: • Mean ODzero=the average of optical density measurements of SRB-derived color just before exposure of cells to the test compounds; • Mean ODtest=the average of optical density measurements of SRB-derived color after exposure of cells to the test compound for a designated period of time; and • Mean ODctrl=the average of optical density measurements of SRB-derived color after with no exposure of cells to the test compound for a designated period of time
(§4) The first two columns describe the subpanel (e.g., leukemia) and cell line (e.g., CCRF-CEM) involved. The next two columns list the Mean ODzero and Mean ODctrl; the next five columns list the Mean ODtest for each of five different concentrations. Each concentration is expressed as the log10 (molar or μg/ml). The next five columns list the calculated PGs for each concentration. The response parameters GI50, TGI and LC50 are interpolated values representing the concentrations at which the PG is +50, 0, and −50, respectively. Sometimes these response parameters cannot be obtained by interpolation. If, for instance, all of the PGs in a given row exceed +50, then none of the three parameters can be obtained by interpolation. In such a case, the value given for each response parameter is the highest concentration tested and is preceded by a “>” sign. This practice is extended similarly to the other possible situations where a response parameter cannot be obtained by interpolation.
(§5) In the first set, the cells from 56 different cancer cell lines were exposed to five concentrations of arsenic trioxide continuously for two days prior to performing the SRB assay. In the second set, the cells from 50 different cell lines (a subset of the first 56 cell lines, plus the renal cancer cell line 786-0) were exposed continuously for six days prior to the SRB assay.

EKVX = test: as above; format: cell-based
Procedure: as §1, §2, §3, §4, §5

A549/ATCC = test: as above; format: cell-based
Procedure: as §1, §2, §3, §4, §5

NCI-H226 = test: as above; format: cell-based
Procedure: as §1, §2, §3, §4, §5

NCI-H522 = test: as above; format: cell-based
Procedure: as §1, §2, §3, §4, §5

NCI-H460 = test: as above; format: cell-based
Procedure: as §1, §2, §3, §4, §5

NCI-8322M = test: as above; format: cell-based
Procedure: as §1, §2, §3, §4, §5

HOP-92 = test: as above; format: cell-based
Procedure: as §1, §2, §3, §4, §5

HOP-62 = test: as above; format: cell-based
Procedure: as §1, §2, §3, §4, §5

T-47D = test: SRB growth assay, 2 days exposure, breast cancer; format: cell-based
Procedure: as §1, §2, §3, §4, §5

MDA-N = test: SRB growth assay, 2 days exposure, breast cancer; format: cell-based
Procedure: as §1, §2, §3, §4, §5

MCF7 = test: SRB growth assay, 2 days exposure, breast cancer; format: cell-based
Procedure: as §1, §2, §3, §4, §5

MDA-MB-231/ATCC = test: SRB growth assay, 2 days exposure, breast cancer; format: cell-based
Procedure: as §1, §2, §3, §4, §5

arsenic trioxide
apoptosis (programmed cell death) [1]: induced apoptosis
TGI (NCI-H23): >0.0126 ng/mL
Percent Growth (NCI-H23; log10 conc −4.9): 58%
Percent Growth (NCI-H23; log10 conc −5.9): 101%
Percent Growth (NCI-H23; log10 conc −6.9): 127%
Percent Growth (NCI-H23; log10 conc −7.9): 121%
Percent Growth (NCI-H23; log10 conc −8.9): 115%
TGI (EKVX): >0.0126 ng/mL
Percent Growth (EKVX; log10 conc −4.9): 11%
Percent Growth (EKVX; log10 conc −5.9): 130%
Percent Growth (EKVX; log10 conc −6.9): 127%
Percent Growth (EKVX; log10 conc −7.9): 129%
Percent Growth (EKVX; log10 conc −8.9): 119%
TGI (A549/ATCC): >0.0126 ng/mL
Percent Growth (A549/ATCC; log10 conc −4.9): 69%
Percent Growth (A549/ATCC; log10 conc −5.9): 108%
Percent Growth (A549/ATCC; log10 conc −6.9): 100%
Percent Growth (A549/ATCC; log10 conc −7.9): 102%
Percent Growth (A549/ATCC; log10 conc −8.9): 100%
TGI (NCI-H226): >0.0126 ng/mL
Percent Growth (NCI-H226; log10 conc −4.9): 92%
Percent Growth (NCI-H226; log10 conc −5.9): 109%
Percent Growth (NCI-H226; log10 conc −6.9): 109%
Percent Growth (NCI-H226; log10 conc −7.9): 96%
Percent Growth (NCI-H226; log10 conc −8.9): 109%
TGI (NCI-H522): 0.00708 ng/mL
Percent Growth (NCI-H522; log10 conc −4.9): −21%
Percent Growth (NCI-H522; log10 conc −5.9): 63%
Percent Growth (NCI-H522; log10 conc −6.9): 108%
Percent Growth (NCI-H522; log10 conc −7.9): 100%
Percent Growth (NCI-H522; log10 conc −8.9): 129%
TGI (NCI-H460): >0.0126 ng/mL
Percent Growth (NCI-H460; log10 conc −4.9): 49%
Percent Growth (NCI-H460; log10 conc −5.9): 92%
Percent Growth (NCI-H460; log10 conc −6.9): 100%
Percent Growth (NCI-H460; log10 conc −7.9): 95%
Percent Growth (NCI-H460; log10 conc −8.9): 89%
TGI (NCI-8322M): >0.0126 ng/mL
Percent Growth (NCI-8322M; log10 conc −4.9): 61%
Percent Growth (NCI-8322M; log10 conc −5.9): 99%
Percent Growth (NCI-8322M; log10 conc −6.9): 97%
Percent Growth (NCI-8322M; log10 conc −7.9): 106%
Percent Growth (NCI-8322M; log10 conc −8.9): 117%
TGI (HOP-92): >0.0126 ng/mL
Percent Growth (HOP-92; log10 conc −4.9): 31%
Percent Growth (HOP-92; log10 conc −5.9): 74%
Percent Growth (HOP-92; log10 conc −6.9): 82%
Percent Growth (HOP-92; log10 conc −7.9): 92%
Percent Growth (HOP-92; log10 conc −8.9): 88%
TGI (HOP-62): >0.0126 ng/mL
Percent Growth (HOP-62; log10 conc −4.9): 35%
Percent Growth (HOP-62; log10 conc −5.9): 97%
Percent Growth (HOP-62; log10 conc −6.9): 100%
Percent Growth (HOP-62; log10 conc −7.9): 99%
Percent Growth (HOP-62; log10 conc −8.9): 97%
TGI (T-47D): 0.00986 ng/mL
Percent Growth (T-47D; log10 conc −4.9): −10%
Percent Growth (T-47D; log10 conc −5.9): 81%
Percent Growth (T-47D; log10 conc −6.9): 133%
Percent Growth (T-47D; log10 conc −7.9): 109%
Percent Growth (T-47D; log10 conc −8.9): 88%
TGI (MDA-N): >0.0126 ng/mL
Percent Growth (MDA-N; log10 conc −4.9): 3%
Percent Growth (MDA-N; log10 conc −5.9): 86%
Percent Growth (MDA-N; log10 conc −6.9): 91%
Percent Growth (MDA-N; log10 conc −7.9): 101%
Percent Growth (MDA-N; log10 conc −8.9): 102%
TGI (MCF7): >0.0126 ng/mL
Percent Growth (MCF7; log10 conc −4.9): 11%
Percent Growth (MCF7; log10 conc −5.9): 95%
Percent Growth (MCF7; log10 conc −6.9): 108%
Percent Growth (MCF7; log10 conc −7.9): 98%
Percent Growth (MCF7; log10 conc −8.9): 99%
TGI (MDA-MB-231/ATCC): >0.0126 ng/mL
Percent Growth (MDA-MB-231/ATCC; log10 conc −4.9): 3%
Percent Growth (MDA-MB-231/ATCC; log10 conc −5.9): 107%
Percent Growth (MDA-MB-231/ATCC; log10 conc −6.9): 109%
Percent Growth (MDA-MB-231/ATCC; log10 conc −7.9): 102%
Percent Growth (MDA-MB-231/ATCC; log10 conc −8.9): 97%
